Experimental data: patent US12495798B2, “Nicotinamide compound and herbicidal composition comprising compound” (KOREA RESEARCH INSTITUTE OF CHEMICAL TECHNOLOGY, priority 2019, dated 2025)

What was measured:
Type in all cases: in vivo
crabgrass = assay: Herbicidal activity test against upland field weeds (foliar treatment test); settings: Digitaria sanguinalis, 50 g ai/ha, scale 0-100
In short: (§1)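 Visual 0–100 control ratings relative to untreated plants, taken 14 (or 21) days after spraying foliage at 50 or 75 g a.i./ha. Spray solution: 50% acetone with 0.1% Tween-20; plants kept in greenhouse at 30±5 °C, 14 h light/10 h dark.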

velvetleaf = assay: as above; settings: Abutilon theophrasti, 50 g ai/ha, scale 0-100, read-out: Foliar treatment herbicidal activity, velvet leaf
In short: as §1

sorghum = assay: as above; settings: Sorghum, 50 g ai/ha, scale 0-100
In short: as §1

indian jointvetch = assay: as above; settings: 50 g ai/ha, scale 0-100
In short: as §1

corn = assay: Phytotoxicity test for field crops (soil treatment test); parameters: key: 0 (no harm); 9 (complete withered)
Experimental: (§2) Experimental Example 4: Phytotoxicity Test for Field Crops (Soil Treatment Test)
(§3) Soil treatment was performed for sown crops and weeds in a square plastic pot having a surface area of 50 cm^2 filled with sterilized horticultural soil (pH 6.1, organic material 1.0%, clay 21%, silt 17%, sand 52%). As a fertilizer per pot, 0.5 g of horticultural mixed fertilizer (N:P:K=17:21:17) was treated by mixing with soil. Five kinds of crops such as rice, wheat, corn, soybean, and cotton were sown in each pot. One day after sowing, test compound solutions were made by diluting with the diluent (33% acetone, 0.1% Tween-20) so that the final treatment amount of the test compounds was 19˜300 g a.i./ha. The prepared test compound solutions were treated using a spray booth (SB6-016) at a treatment amount of 100 ml per 1 m^2 of treatment area. The treated crops were managed in greenhouse conditions (average temperature 30±5° C., light/dark=14/10 hours). External symptoms and phytotoxicity were visually investigated 10 and 20 days after treatment. In the evaluation of the phytotoxicity for the crop, the grade of 0 (no harm) to 9 (complete withered) was used. The results of Table 10 were obtained by evaluating phytotoxicity value to the untreated control.

wheat = assay: as above; parameters: key: 0 (no harm); 9 (complete withered)
Experimental: as §2, §3

rice = assay: as above; parameters: key: 0 (no harm); 9 (complete withered)
Experimental: as §2, §3

cotton = assay: as above; parameters: key: 0 (no harm); 9 (complete withered)
Experimental: as §2, §3

[1] = 50 g ai/ha, Corn (10 days after treatment)
[2] = 50 g ai/ha, Corn (20 days after treatment)
[3] = 100 g ai/ha, Corn (10 days after treatment)
[4] = 100 g ai/ha, Corn (20 days after treatment)
[5] = 50 g ai/ha, Wheat (10 days after treatment)
[6] = 50 g ai/ha, Wheat (20 days after treatment)
[7] = 100 g ai/ha, Wheat (10 days after treatment)
[8] = 100 g ai/ha, Wheat (20 days after treatment)
[9] = 50 g ai/ha, Rice (10 days after treatment)
[10] = 50 g ai/ha, Rice (20 days after treatment)
[11] = 100 g ai/ha, Rice (10 days after treatment)
[12] = 100 g ai/ha, Rice (20 days after treatment)
[13] = 50 g ai/ha, Cotton (10 days after treatment)
[14] = 50 g ai/ha, Cotton (20 days after treatment)
[15] = 100 g ai/ha, Cotton (10 days after treatment)
[16] = 100 g ai/ha, Cotton (20 days after treatment)

Structure (SMILES)	pest or weed control at 50 g/ha (crabgrass)	pest or weed control at 50 g/ha (velvetleaf)	plant injury at 50 g/ha (sorghum)	pest or weed control at 50 g/ha (indian jointvetch)	Soil treatment phytotoxicity, Corn (corn; [1])	Soil treatment phytotoxicity, Corn (corn; [2])	Soil treatment phytotoxicity, Corn (corn; [3])	Soil treatment phytotoxicity, Corn (corn; [4])	Soil treatment phytotoxicity, Wheat (wheat; [5])	Soil treatment phytotoxicity, Wheat (wheat; [6])	Soil treatment phytotoxicity, Wheat (wheat; [7])	Soil treatment phytotoxicity, Wheat (wheat; [8])	Soil treatment phytotoxicity, Rice (rice; [9])	Soil treatment phytotoxicity, Rice (rice; [10])	Soil treatment phytotoxicity, Rice (rice; [11])	Soil treatment phytotoxicity, Rice (rice; [12])	Soil treatment phytotoxicity, Cotton (cotton; [13])	Soil treatment phytotoxicity, Cotton (cotton; [14])	Soil treatment phytotoxicity, Cotton (cotton; [15])	Soil treatment phytotoxicity, Cotton (cotton; [16])
Cc1nc(COCc2nc(C(F)(F)F)ccc2C(=O)Nc2nnnn2C)nn1C [Compound No. 2-116, 2-(((1,5-dimethyl-1H-1,2,4-triazol-3-yl)methoxy)methyl)-N-(1-methyl-1H-tetrazol-5-yl)-6-(trifluoromethyl)nicotinamide]	80%	90%	40%	40%	1	4	1	3	0	2	0	0	0	3	0	2	1	3	1	2
Cc1nc(COCc2nc(C(F)(F)F)ccc2C(=S)Nc2nnnn2C)nn1C [Compound No. 2-117, 2-(((1,5-dimethyl-1H-1,2,4-triazol-3-yl)methoxy)methyl)-N-(1-methyl-1H-tetrazol-5-yl)-6-(trifluoromethyl)pyridin-3-carbothioamide]	95%	90%	40%	40%	1	3	2	2	0	0	0	0	0	2	0	3	0	9	0	9
